≈ marks a conversion by molar mass, not a printed value.
Assays:
[1] = system: human breast carcinoma (MCF7) cells; test: SRB cytotoxic assay, MCF7; format: cell-based; conditions: MCF7, 48 h
Method: (§1) All the prepared compounds were screened at a concentration of 100 µg/mL against six different human cell lines: human laryngeal carcinoma (HEP2), human colorectal carcinoma (HCT116), human breast carcinoma (MCF7), human Lung carcinoma (A549), human liver carcinoma (HEPG2), and normal African Green monkey kidney cell line (VERO). Doxorubicin was used as a positive control for comparison purposes.
(§2) The human laryngeal carcinoma (HEP2), colorectal carcinoma (HCT116), breast carcinoma (MCF7), Lung carcinoma (A549), liver carcinoma (HEPG2), and normal African Green monkey kidney cell line (VERO) were purchased from American Tissue Culture Collection (Rockville, MD, USA). The cells were treated for 48 h with a single dose (100 µg/mL) of all the tested chalcones. […] In brief, the cells were seeded in a 96-well microtiter plate at a concentration of 5×10^3 cells/well in 100 µL fresh RPMI-1640 medium and left to attach to the plates for 24 h. Then, cells were incubated with 100 μL of different concentrations (50, 25, 12.5, 6.25, and 0.0 µg/mL) of 5c in triplicate at 37 °C for 48 h. After that, the cells were fixed with 10 µL cold 100% Trichloroacetic acid (TCA) for 1h at 4 °C. The wells were then washed 1 time with distilled water using (automatic Tecan washer, Germany) and stained for 30 min at room temperature with 50 µL 0.4% SRB dissolved in 1% acetic acid. The plates were air-dried and the dye was solubilized with 100 µl/well of 1M tris base (pH 10.5) for 5 min. The optical density (O.D.) of each well was measured spectrophotometrically at 570 nm with an ELISA microplate reader (Sunrise Tecan reader, Germany) with automatic shaking for 30 seconds before reading. The mean background absorbance was subtracted automatically and mean values for each drug concentration were calculated. The percentage of cell survival was calculated as follows: Survival fraction= O.D. (treated cells)/ O.D. (control cells) (Bhat et al. [2023]).

[2] = system: normal African Green monkey kidney cell line (VERO); test: SRB cytotoxic assay, VERO normal cells; format: cell-based; conditions: Chlorocebus sabaeus, single dose 100 µg/mL, 48 h, read-out: %Inhibition at100 µg/mL VERO
Method: as §1, §2

[3] = system: IL-6 gene; test: Real-time PCR, IL-6 gene expression; format: cell-based, human; conditions: relative to untreated control (1)
Method: (§3) The expression level of the following six genes (Ki-67, Survivin, Interleukin-1 beta (IL-1B), Interleukin-6 (IL-6), Cyclooxygenase-2 (COX-2) and protein kinase B (AKT1)) was determined in MCF7 and HEP2 treated with the IC50 of compound 5c. The untreated cells were used as a negative control for comparison purposes. […] Ki-67 is a popular proliferation marker for human tumor cells. […] Survivin is an inhibitor of apoptotic protein (IAP) family member, which is essential for cell division. The lowering of the expression of survivin inhibited tumor development, triggered apoptosis, and made tumor cells more susceptible to radiation and chemotherapy (Albadari and Li [2023]). […] IL-1B is a pleiotropic mediator of inflammation, which is produced in response to a variety of stressors (Aarreberg et al. [2019]). […] IL-6 is a pro-inflammatory cytokine that plays a significant role in the proliferation and differentiation of human cells. It promotes the production of numerous proteins involved in acute inflammation (Uciechowski and Dempke [2020]). […]
(§4) The expression level of the following six genes (Ki-67, survivin, AKT1, IL-6, COX2, and IL-1B) was examined using real-time polymerase chain reaction (qPCR) (Mohamed et al. [2023a]). […] The cycle threshold (Ct) was determined automatically. […]

[4] = system: AKT1 gene; test: Real-time PCR, AKT1 gene expression; format: cell-based, human; conditions: relative to untreated control (1)
Method: as §3, §4

[5] = HEP2 cells treated with IC50 of 5c
[6] = MCF7 cells treated with IC50 of 5c

COc1ccc(NC(=O)COc2ccc(C=CC(=O)c3cccs3)cc2)cc1 [Compound 5c, N-(4-Methoxyphenyl)-2-(4-(3-oxo-3-(thiophen-2-yl)prop-1-en-1-yl)phenoxy)acetamide]
IC50 [1]: 9.5 mg/L (≈ 24.1 µM) | inhibition at 100 µg/mL ([1]; single dose 100 µg/mL, read-out: %Inhibition at100 µg/mL MCF7): > 75% | inhibition at 100 µg/mL [2]: 58 ± 1.5% | IL-6 expression folding [3, 5]: 0.464±0.08 fold | IL-6 expression folding [3, 6]: 0.814±0.079 fold | AKT1 expression folding [4, 5]: 0.381±0.011 fold | AKT1 expression folding [4, 6]: 0.402±0.068 fold
